Molecular target: SARS‐CoV‐2 M^pro (Severe acute respiratory syndrome coronavirus 2, UniProt P0DTD1)
Test: SARS‐CoV‐2 main protease enzymatic assay (FRET inhibitor screening kit)
Assay type: biochemical

`Cc1cncc(C(=O)N2C[C@H]3CC[C@@H](C2)N3[C@H](c2cccc(F)c2)c2cn(CCc3ccsc3)nn2)c1` [Compound C5N17B] was tested, and the IC50 was 120 nM, the inhibition at 5 µM (5 μM, read-out: Inhibitionrate at @5μM) was 99.6% and the “fold stronger enzyme inhibitory activity than C5N17A” value (IC50 ratio) was 27 fold.

From publication PMC11578313, “Miniaturized Modular Click Chemistry‐enabled Rapid Discovery of Unique SARS‐CoV‐2 M^pro Inhibitors With Robust Potency and Drug‐like Profile” (Advanced Science, 2024)
